Assay: method code SF, from DOI: 10.1002/qsar.19830020303
Conditions: not given

In order of falling logP:
1. CSc1ccc2ccccc2n1  3.04
2. CN(C)c1ccc(Cl)nn1  0.98
3. CS(=O)(=O)c1ccc2ncccc2c1  0.7
4. NC(=S)c1cccnc1  0.67
5. Cc1cc(NN)ncn1  0.62
6. NS(=O)(=O)c1ccc2ncccc2c1  0.56
7. CC(=O)Nc1ccncc1  0.5
8. Cc1cc(N)nc(C)n1  0.39
9. NNC(=O)c1ccc2ncccc2c1  0.35
10. Nc1ccc(Cl)nn1  0.35
11. CN(C)c1cccnn1  0.29
12. Cc1cc(N)ncn1  0.19
13. CCOC(=O)c1ccc(Cl)nn1  0.12
14. NC(=O)c1ccc(Cl)nn1  0
15. CN(C)c1ccnnc1  -0.09
16. COC(=O)c1cnccn1  -0.17
17. NC(=O)c1ccncc1  -0.28
18. NC(=S)c1ncccn1  -0.34
19. CN(C)C(=O)c1cccnc1  -0.48
20. NS(=O)(=O)c1cccnc1  -0.49
21. CC(=O)Nc1ncccn1  -0.75

Same assay, conditions: pH 7.4

With Oc1cnc2ccccc2c1 the logD was 2.08.

Assay: not given
Conditions: not given

In order of falling logP:
1. CNc1nc(-c2ccccc2)c2ccccc2n1  3.58
2. COc1nc(-c2ccccc2)c2ccccc2n1  3.5
3. CN(C)c1nnc(-c2ccccc2)c2ccccc12  3.22
4. c1ccc(Sc2cccnc2)cc1  3.15
5. Cc1nc(-c2ccccc2)c2ccccc2n1  3.1
6. Ic1ccc2ccccc2n1  3.04
7. Nc1nc(-c2ccccc2)c2ccccc2n1  2.95
8. c1ccc2c(N3CCCCC3)ncnc2c1  2.92
9. COc1cc(C)nc2ccccc12  2.81
10. CN(C)c1ccc2ccccc2n1  2.81
11. c1ccc(Nc2ccccn2)cc1  2.75
12. c1ccc(-c2ncnc3ccccc23)cc1  2.71
13. CCOC(=O)c1ccc2ncccc2c1  2.64
14. c1ccc2c(NC3CCCC3)ncnc2c1  2.61
15. CSc1ncc2ccccc2n1  2.5
16. c1ccc(Oc2ccccn2)cc1  2.45
17. CC(C)(C)c1ccccn1  2.4
18. O=S(=O)(c1ccccc1)c1cccc2cccnc12  2.33
19. CCOC(=O)c1cc2ccc(CC)cc2nn1  2.31
20. CCCOc1cncc(C)n1  2.29
21. COC(=O)c1cnc2ccccc2c1  2.25
22. COc1nnc(OC)c2ccccc12  2.22
23. O=Cc1ccc2ccccc2n1  2.14
24. Cc1cnnc2cc(Cl)ccc12  1.98
25. COc1ncnc2ccccc12  1.97
26. Cc1cnnc2ccc(Cl)cc12  1.96
27. O=C(c1ccccc1)c1ccccn1  1.96
28. c1ccc(-c2ncncn2)cc1  1.93
29. COc1ccnc2c([N+](=O)[O-])cccc12  1.92
30. CSc1nc(C)cc(C)n1  1.86
31. CSc1ccc(SC)nn1  1.85
32. CCCCOc1cccnn1  1.8
33. O=CNc1cccc2cccnc12  1.8
34. CC(=O)c1cnc2ccccc2c1  1.76
35. Clc1ccc2cncnc2c1  1.74
36. Brc1cc2ccccc2nn1  1.72
37. CSc1ccccn1  1.71
38. NNc1ncnc2ccccc12  1.67
39. N#Cc1ccc2ccccc2n1  1.6
40. Cc1cccc2c(N)cnnc12  1.57
41. N#Cc1cnc2ccccc2c1  1.57
42. Clc1cc2ccccc2nn1  1.57
43. CC(=O)Nc1ccc2cccnc2c1  1.55
44. CC(=O)c1cc2ccccc2nn1  1.44
45. CN(C)c1ccccn1  1.43
46. COc1cnnc2ccccc12  1.41
47. c1ccc(-c2nnco2)cc1  1.31
48. Nc1ccnc2c([N+](=O)[O-])cccc12  1.31
49. Nc1ncnc2ccccc12  1.28
50. Cc1cccnc1  1.19
51. NC(=O)c1cnc2ccccc2c1  1.06
52. Nc1cnnc2ccccc12  1.04
53. Nc1cc2ccccc2nn1  1
54. CN(C)c1ccc(N(C)C)nn1  0.99
55. CN(C)C(=O)c1cnc2ccccc2c1  0.99
56. NC(=O)c1cnc2ccccc2n1  0.98
57. COc1ccc(Cl)nn1  0.89
58. Nc1nncc2ccccc12  0.82
59. O=[N+]([O-])c1cc2ccccc2nn1  0.73

Assay: method code SF-AS, from DOI: 10.1002/qsar.19830020303
Conditions: not given

For Cc1cc(C)nc(C)c1, the logP was 2.01.
